In ChEMBL document CHEMBL1140399, “Synthesis and evaluation of 3-anilino-quinoxalinones as glycogen phosphorylase inhibitors” (Bioorg Med Chem Lett, 2005):

Experiments:
Mus musculus [1] = test: Blood glucose levels in mice was measured using glucometer after 0 hours of compound administration at 30 mg/kg body weight via oral gavage
Mus musculus [2] = test: Blood glucose levels in mice was measured using glucometer after 1 hours of compound administration at 30 mg/kg body weight via oral gavage
Mus musculus [3] = test: Blood glucose levels in mice was measured using glucometer after 2 hours of compound administration at 30 mg/kg body weight via oral gavage
Mus musculus [4] = test: Blood glucose levels in mice was measured using glucometer after 4 hours of compound administration at 30 mg/kg body weight via oral gavage
Mus musculus [5] = test: Blood glucose levels in mice was measured using glucometer after 8 hours of compound administration at 30 mg/kg body weight via oral gavage

Q: What does the source list for `Cn1c(=O)c(Nc2ccc(C(=O)NCc3cccs3)cc2)nc2ccccc21`?
A: Blood glucose level (Mus musculus [1]): 334; Blood glucose level (Mus musculus [2]): 306.4; Blood glucose level (Mus musculus [3]): 351.3; Blood glucose level (Mus musculus [4]): 313.3; Blood glucose level (Mus musculus [5]): 224.9

Q: What does the source list for `CCn1c(=O)c(Nc2ccc(C(=O)NCc3cccs3)cc2)nc2ccccc21`?
A: Blood glucose level (Mus musculus [1]): 320.3; Blood glucose level (Mus musculus [2]): 349.1; Blood glucose level (Mus musculus [3]): 338.4; Blood glucose level (Mus musculus [4]): 383.3; Blood glucose level (Mus musculus [5]): 325.9

Q: Which Blood glucose level (Mus musculus [1]) does the source give for `Cn1c(=O)c(Nc2ccc(C(=O)NCc3cccs3)cc2)nc2cccnc21` here?
A: 357.4

Q: And the Blood glucose level (Mus musculus [2])?
A: 305.4

Q: What about the Blood glucose level (Mus musculus [3]) of the same compound?
A: 356

Q: What about the Blood glucose level (Mus musculus [4]) of the same compound?
A: 362.5

Q: And the Blood glucose level (Mus musculus [5])?
A: 328.4
